# Test results taken from patent US12091426B2, “Bifunctional degraders of hematopoietic progenitor kinase and therapeutic uses thereof” (Nurix Therapeutics, Inc., priority 2021, dated 2024).
# Target: T1, HPK1 (Homo sapiens, UniProt Q92918)
# T1 construct: A HiBiT tag was introduced by CRISPR on the N terminus of HPK1 in Jurkat cells; host or cells: Jurkat cells (ATCC TIB-152), monoclonal line with CRISPR knock-in of HiBiT at the endogenous HPK1 locus
# Experiment: HPK1 Cellular HiBit Degradation Assay
# Type: cell-based
# Conditions: HiBiT HPK1 Jurkat cells, 24 hrs; for DC50: concentration at which 50% of HPK1 was remaining, read-out: DC50 Category; for Dmax: Jurkat, maximum degradation vs DMSO vehicle control, read-out: Dmax Category
# Summary of the method: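 Jurkat cells with CRISPR N-terminal HiBiT-tagged endogenous HPK1 treated 24 h at 37 °C with 11-point, 3.16-fold dilutions (10 uM to 0.1 nM final). HiBiT lytic luminescence gives % HPK1 remaining versus DMSO, with parental cells as background. Four-parameter fit yields DC50; Dmax = 100 minus lowest % remaining.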
# T1 sequence (Q92918 whole entry): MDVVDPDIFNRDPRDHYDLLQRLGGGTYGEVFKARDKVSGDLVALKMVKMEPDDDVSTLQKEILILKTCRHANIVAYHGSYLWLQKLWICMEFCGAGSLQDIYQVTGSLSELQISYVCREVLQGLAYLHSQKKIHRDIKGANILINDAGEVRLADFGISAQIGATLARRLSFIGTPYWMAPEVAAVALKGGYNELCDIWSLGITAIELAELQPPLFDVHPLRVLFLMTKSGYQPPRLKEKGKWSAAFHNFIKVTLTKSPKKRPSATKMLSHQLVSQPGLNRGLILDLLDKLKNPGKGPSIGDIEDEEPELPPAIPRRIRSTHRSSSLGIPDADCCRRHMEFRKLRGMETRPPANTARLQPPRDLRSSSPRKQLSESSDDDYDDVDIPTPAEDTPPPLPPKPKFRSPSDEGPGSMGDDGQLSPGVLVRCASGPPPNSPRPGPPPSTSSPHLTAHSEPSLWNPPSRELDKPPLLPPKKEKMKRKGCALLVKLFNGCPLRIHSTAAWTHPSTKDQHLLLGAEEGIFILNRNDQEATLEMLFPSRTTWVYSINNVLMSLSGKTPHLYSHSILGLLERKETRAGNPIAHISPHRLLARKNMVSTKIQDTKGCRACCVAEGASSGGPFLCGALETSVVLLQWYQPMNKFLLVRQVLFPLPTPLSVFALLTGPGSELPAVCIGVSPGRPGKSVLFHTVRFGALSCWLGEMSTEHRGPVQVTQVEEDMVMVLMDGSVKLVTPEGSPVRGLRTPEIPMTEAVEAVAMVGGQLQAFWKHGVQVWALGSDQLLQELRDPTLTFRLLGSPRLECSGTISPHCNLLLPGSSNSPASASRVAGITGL
SMILES,DC50 [µM],Dmax [%]
"CC(C)n1cnc2cc(-c3ccc4c(c3)N([C@H]3C[C@@H](N5CCCCC5)C3)C(=O)C43CCN(C(=O)C4CN(C(=O)C5CCN(c6ccc(C7CCC(=O)NC7=O)cn6)CC5)CC5(CCC5)C4)CC3)nc(NC3CC3)c21 (mixture of isomers) [Example 267, (3RS)-3-(6-{4-[8-({6-[4-(cyclopropylamino)-3-(propan-2-yl)-3H-imidazo[4,5-c]pyridin-6-yl]-2-oxo-1-[(1S,3S)-3-(piperidin-1-yl)cyclobutyl]-1,2-dihydrospiro[indole-3,4′-piperidin]-1′-yl}carbonyl)-6-azaspiro[3.5]nonane-6-carbonyl]piperidin-1-yl}pyridin-3-yl)piperidine-2,6-dione]",< 0.1,50 to 70
"CC(C)n1cnc2cc(-c3ccc4c(c3)N([C@H]3C[C@@H](N5CCCCC5)C3)C(=O)C43CCN(C(=O)C4CN(C(=O)C5CCN(c6ccc(C7CCC(=O)NC7=O)cc6)CC5)CC(F)(F)C4)CC3)nc(NC3CC3)c21 (mixture of isomers) [Example 268, (3RS)-3-(4-{4-[5-({6-[4-(cyclopropylamino)-3-(propan-2-yl)-3H-imidazo[4,5-c]pyridin-6-yl]-2-oxo-1-[(1S,3S)-3-(piperidin-1-yl)cyclobutyl]-1,2-dihydrospiro[indole-3,4′-piperidin]-1′-yl}carbonyl)-3,3-Difluoropiperidine-1-carbonyl]piperidin-1-yl}phenyl)piperidine-2,6-dione]",0.1 to 0.5,50 to 70
"CC(C)n1cnc2cc(-c3ccc4c(c3)N([C@H]3C[C@@H](N5CCCCC5)C3)C(=O)C43CCN(C(=O)C4CCN(C(=O)C5CCN(c6ccc(C7CCC(=O)NC7=O)cn6)CC5)C5(CCC5)C4)CC3)nc(NC3CC3)c21 (mixture of isomers) [Example 270, (3RS)-3-(6-{4-[8-({6-[4-(cyclopropylamino)-3-(propan-2-yl)-3H-imidazo[4,5-c]pyridin-6-yl]-2-oxo-1-[(1S,3S)-3-(piperidin-1-yl)cyclobutyl]-1,2-dihydrospiro[indole-3,4′-piperidin]-1′-yl}carbonyl)-5-azaspiro[3.5]nonane-5-carbonyl]piperidin-1-yl}pyridin-3-yl)piperidine-2,6-dione]",< 0.1,70 to 85
"CC(C)n1cnc2cc(-c3ccc4c(c3)N([C@H]3C[C@@H](N5CCCCC5)C3)C(=O)C43CCN(C(=O)C45CC(CN(C(=O)C6CCN(c7ccc(C8CCC(=O)NC8=O)cn7)CC6)C4)C5)CC3)nc(NC3CC3)c21 (mixture of isomers) [Example 271, (3RS)-3-(6-{4-[1-({6-[4-(cyclopropylamino)-3-(propan-2-yl)-3H-imidazo[4,5-c]pyridin-6-yl]-2-oxo-1-[(1S,3S)-3-(piperidin-1-yl)cyclobutyl]-1,2-dihydrospiro[indole-3,4′-piperidin]-1′-yl}carbonyl)-3-azabicyclo[3.1.1]heptane-3-carbonyl]piperidin-1-yl}pyridin-3-yl)piperidine-2,6-dione]",< 0.1,70 to 85
"CC(C)n1cnc2cc(-c3ccc4c(c3)N([C@H]3C[C@@H](N5CCCCC5)C3)C(=O)C43CCN(C(=O)C4(O)CCN(C(=O)C5CCN(c6ccc(C7CCC(=O)NC7=O)cc6)CC5)CC4)CC3)nc(NC3CC3)c21 (mixture of isomers) [Example 274, (3RS)-3-(4-{4-[4-({6-[4-(cyclopropylamino)-3-(propan-2-yl)-3H-imidazo[4,5-c]pyridin-6-yl]-2-oxo-1-[(1S,3S)-3-(piperidin-1-yl)cyclobutyl]-1,2-dihydrospiro[indole-3,4′-piperidin]-1′-yl}carbonyl)-4-hydroxypiperidine-1-carbonyl]piperidin-1-yl}phenyl)piperidine-2,6-dione]",< 0.1,70 to 85
"CC(C)n1cnc2cc(-c3ccc4c(c3)N([C@H]3C[C@@H](N5CCCCC5)C3)C(=O)C43CCN(C(=O)C4(C(F)(F)F)CCN(C(=O)C5CCN(c6ccc(C7CCC(=O)NC7=O)cn6)CC5)CC4)CC3)nc(NC3CC3)c21 (mixture of isomers) [Example 275, (3RS)-3-(6-{4-[4-({6-[4-(cyclopropylamino)-3-(propan-2-yl)-3H-imidazo[4,5-c]pyridin-6-yl]-2-oxo-1-[(1S,3S)-3-(piperidin-1-yl)cyclobutyl]-1,2-dihydrospiro[indole-3,4′-piperidin]-1′-yl}carbonyl)-4-(trifluoromethyl)piperidine-1-carbonyl]piperidin-1-yl}pyridin-3-yl)piperidine-2,6-dione]",0.1 to 0.5,> 85
"CC(C)n1cnc2cc(-c3ccc4c(c3)N([C@H]3C[C@@H](N5CCCCC5)C3)C(=O)C43CCN(C(=O)C4(C(F)F)CCN(C(=O)C5CCN(c6ccc(C7CCC(=O)NC7=O)cn6)CC5)CC4)CC3)nc(NC3CC3)c21 (mixture of isomers) [Example 276, (3RS)-3-(6-{4-[4-({6-[4-(cyclopropylamino)-3-(propan-2-yl)-3H-imidazo[4,5-c]pyridin-6-yl]-2-oxo-1-[(1S,3S)-3-(piperidin-1-yl)cyclobutyl]-1,2-dihydrospiro[indole-3,4′-piperidin]-1′-yl}carbonyl)-4-(difluoromethyl)piperidine-1-carbonyl]piperidin-1-yl}pyridin-3-yl)piperidine-2,6-dione]",< 0.1,> 85
CC(C)n1cnc2cc(-c3ccc4c(c3)N([C@H]3C[C@@H](N5CCCCC5)C3)C(=O)C43CCN(C(=O)C4(CF)CCN(C(=O)C5CCN(c6ccc(C7CCC(=O)NC7=O)cn6)CC5)CC4)CC3)nc(NC3CC3)c21 (mixture of isomers) [Example 278],< 0.1,> 85

# Next, values leading:
DC50 [µM],Dmax [%],SMILES
< 0.1,70 to 85,"CC(C)n1cnc2cc(-c3ccc4c(c3)N([C@H]3C[C@@H](N5CCCCC5)C3)C(=O)C43CCN(C(=O)[C@@H]4C[C@@H]5C[C@H]4CN5C(=O)C4CCN(c5ccc(C6CCC(=O)NC6=O)cn5)CC4)CC3)nc(NC3CC3)c21 (mixture of isomers) [Example 265, (3RS)-3-(6-{4-[(S,4R,5R)-5-({6-[4-(cyclopropylamino)-3-(propan-2-yl)-3H-imidazo[4,5-c]pyridin-6-yl]-2-oxo-1-[(1S,3S)-3-(piperidin-1-yl)cyclobutyl]-1,2-dihydrospiro[indole-3,4′-piperidin]-1′-yl}carbonyl)-2-azabicyclo[2.2.1]heptane-2-carbonyl]piperidin-1-yl}pyridin-3-yl)piperidine-2,6-dione]"
< 0.1,70 to 85,"CC(C)n1cnc2cc(-c3ccc4c(c3)N([C@H]3C[C@@H](N5CCCCC5)C3)C(=O)C43CCN(C(=O)[C@@H]4[C@H]5CCN(C(=O)C6CCN(c7ccc(C8CCC(=O)NC8=O)cn7)CC6)[C@H]54)CC3)nc(Nc3ccccc3F)c21 (mixture of isomers) [Example 266, (3RS)-3-(6-{4-[(1R,5R,6R)-6-[(6-{4-[(2-fluorophenyl)amino]-3-(propan-2-yl)-3H-imidazo[4,5-c]pyridin-6-yl}-2-oxo-1-[(1S,3S)-3-(piperidin-1-yl)cyclobutyl]-1,2-dihydrospiro[indole-3,4′-piperidin]-1′-yl)carbonyl]-2-azabicyclo[3.1.0]hexane-2-carbonyl]piperidin-1-yl}pyridin-3-yl)piperidine-2,6-dione]"
< 0.1,70 to 85,"CC(C)n1cnc2cc(-c3ccc4c(c3)N([C@H]3C[C@@H](N5CCCCC5)C3)C(=O)C43CCN(C(=O)C4CCN(C(=O)C5CCN(c6ccc(C7CCC(=O)NC7=O)cn6)CC5)C5(CC5)C4)CC3)nc(NC3CC3)c21 (mixture of isomers) [Example 269, (3RS)-3-(6-{4-[7-({6-[4-(cyclopropylamino)-3-(propan-2-yl)-3H-imidazo[4,5-c]pyridin-6-yl]-2-oxo-1-[(1S,3S)-3-(piperidin-1-yl)cyclobutyl]-1,2-dihydrospiro[indole-3,4′-piperidin]-1′-yl}carbonyl)-4-azaspiro[2.5]Octane-4-carbonyl]piperidin-1-yl}pyridin-3-yl)piperidine-2,6-dione]"
< 0.1,70 to 85,"CC(C)n1cnc2cc(-c3ccc4c(c3)N([C@H]3C[C@@H](N5CCCCC5)C3)C(=O)C43CCN(C(=O)C4CCCN(C(=O)C5CCN(c6ccc(C7CCC(=O)NC7=O)cn6)CC5)C4)CC3)nc(NC3CC3)c21 (mixture of isomers) [Example 272, (3RS)-3-(6-{4-[3-({6-[4-(cyclopropylamino)-3-(propan-2-yl)-3H-imidazo[4,5-c]pyridin-6-yl]-2-oxo-1-[(1S,3S)-3-(piperidin-1-yl)cyclobutyl]-1,2-dihydrospiro[indole-3,4′-piperidin]-1′-yl}carbonyl)piperidine-1-carbonyl]piperidin-1-yl}pyridin-3-yl)piperidine-2,6-dione]"
< 0.1,70 to 85,"CC(C)n1cnc2cc(-c3ccc4c(c3)N([C@H]3C[C@@H](N5CCCCC5)C3)C(=O)C43CCN(C(=O)C4CCN(C(=O)C5CCN(c6ccc(C7CCC(=O)NC7=O)cn6)CC5)CC4(F)F)CC3)nc(NC3CC3)c21 (mixture of isomers) [Example 273, (3RS)-3-(6-{4-[4-({6-[4-(cyclopropylamino)-3-(propan-2-yl)-3H-imidazo[4,5-c]pyridin-6-yl]-2-oxo-1-[(1S,3S)-3-(piperidin-1-yl)cyclobutyl]-1,2-dihydrospiro[indole-3,4′-piperidin]-1′-yl}carbonyl)-3,3-Difluoropiperidine-1-carbonyl]piperidin-1-yl}pyridin-3-yl)piperidine-2,6-dione]"
< 0.1,70 to 85,"CC(C)n1cnc2cc(-c3ccc4c(c3)N([C@H]3C[C@@H](N5CCCCC5)C3)C(=O)C43CCN(C(=O)C4(F)CCN(C(=O)C5CCN(c6ccc(C7CCC(=O)NC7=O)cn6)CC5)CC4)CC3)nc(NC3CC3)c21 (mixture of isomers) [Example 277, (3RS)-3-(6-{4-[4-({6-[4-(cyclopropylamino)-3-(propan-2-yl)-3H-imidazo[4,5-c]pyridin-6-yl]-2-oxo-1-[(1S,3S)-3-(piperidin-1-yl)cyclobutyl]-1,2-dihydrospiro[indole-3,4′-piperidin]-1′-yl}carbonyl)-4-fluoropiperidine-1-carbonyl]piperidin-1-yl}pyridin-3-yl)piperidine-2,6-dione]"
